Data: patent US8748419B2, “Treating obesity with muscarinic receptor M1 antagonists” (priority 2006, dated 2014)

How the values were obtained:
[1] = Reduction in weight gain of rats on a high fat diet (two-week treatment); type: in vivo, Sprague-Dawley rats; details: for % Reduction: treatment minus vehicle % weight gain
Protocol: Reduction in Weight Gain: Three- to four-month-old (475-550 grams) male, Sprague-Dawley rats (individually housed) were used to assess compounds for their ability to prevent weight gain. At the onset of chronic experiments, rats had been maintained (ad libitum access) on a “high fat” diet (BioServ Diet #F3282 or Research Diets #12451) for approximately one month. Individual body weights and water consumptions were recorded three times per week throughout the duration of the experiment. After approximately two weeks of data collection, rats were counter-balanced to produce treatment groups with equivalent mean body weights. Under isofluorane-induced anesthesia, rats were surgically implanted (subscapular, subcutaneous [sc] placement) with osmotic mini-pumps (Alzet 2mL2) containing the appropriate drug concentration (based on mean body weights and calculated durations of delivery). Alternatively, for studies using the oral route of administration, rats were dosed by gavage daily over 14 days at a volume of 3 mL/kg. Data collection was continued under drug treatment for approximately two more weeks. Change in body weight (expressed in grams) was calculated for the treatment interval. In this assay, vehicle-treated rats typically gain approximately 35-40 grams (+9%) over the two-week interval. Treatment effects are presented in Table 3 as % Weight Gain=[(Body Weight at End of Drug Infusion−Baseline Body Weight)/Baseline Body Weight]×100%, for both Vehicle and Treatment groups; as well as % Reduction=(% Weight Gain for Treatment group−% Weight Gain for Vehicle group). Body weights throughout the treatment period are presented in FIGS. 11-15 as the percentage of baseline body weight. Similar superscripts in the Dose column of Table 3 denote values derived from the same experiment (to facilitate comparisons between individual treatments and co-administrations). Statistical analyses were performed using a 1-way ANOVA (analysis of variance) followed by a Bonferroni multiple comparison test with the overall alpha set at 0.05. In Table 3, asterisks (*) denote significant effects compared to vehicle-treated rats, while letters (a or b) denote significant effects compared to rats treated with a single compound (“a” for significance from antidepressant and “b” for significance from telenzepine). In Table 3, one symbol denotes p<0.05, two symbols denote p<0.01 and three symbols denote p<0.001). The symbols used for denoting statistical significance may be different in the corresponding figures.

[2] = Appetite suppression: high fat food consumption in fasted rats (4-Hour and 24-Hour Consumption); type: in vivo, Sprague-Dawley rats; details: for reduction in effective dose of sibutramine: 30 mg/kg of telenzepine co-administered, effective dose lowered to 1 mg/kg
Description: Appetite Suppression: Three-month-old (300-350 grams) male, Sprague-Dawley rats (individually housed) were used to assess compounds for their appetite suppressant effects. Rats were acclimatized to a “high fat” food diet (BioServ Diet #F3282 or Research Diets #12451) for two weeks prior to testing (access to food and water ad libitum). One day prior to the experiment (at 5:00 PM), food was removed from the cages in order to motivate feeding when the food was returned the following morning (water remained available throughout the experiment). Prior to presentation of the food, rats (n=8-10/dose group) were dosed intraperitoneally (ip) or orally (po) with the compound under investigation, returned to their home cage and immediately given a pre-weighed amount of food. Four hours after administration, the food was removed from the cage, weighed, recorded (4-Hour Consumption) and returned to the rat until the following morning. Twenty-four hours after administration, the remaining food was again weighed and recorded (24-Hour Consumption). Cumulative consumption (expressed in grams) was calculated for both the four and the twenty-four hour intervals. In this assay, vehicle-treated rats typically consume approximately 8 grams over the four-hour interval and approximately 25 grams over the twenty-four-hour interval.
Treatment effects are presented in Table 1 and FIGS. 1-5 (4-Hour Consumption) and Table 2 and FIGS. 6-10 (24-Hour Consumption). The effects are given as both Raw Consumption (in grams ±SEM [1 standard error of the mean]) and as % Reduction in 4-Hour or 24-Hour Consumption=[1-(Consumption following Drug Treatment/Consumption following Vehicle Treatment)]×100%. Similar superscripts in the Dose column of Tables 1 and 2 denote values derived from the same experiment (to facilitate comparisons between individual treatments and co-administrations). Statistical analyses were performed using a 1-way ANOVA (analysis of variance) followed by a Bonferroni multiple comparison test with the overall alpha set at 0.05. In Tables 1 and 2, asterisks (*) denote significant effects compared to vehicle-treated rats, while letters (a or b) denote significant effects compared to rats treated with a single compound (“a” for significance from antidepressant and “b” for significance from telenzepine). In Tables 1 and 2, one symbol denotes p<0.05, two symbols denote p<0.01 and three symbols denote p<0.001). The symbols used for denoting statistical significance may be different in the corresponding figures.

[3] = local microinjection; cited from earlier work
[4] = 24 h, 10 mg/kg po, experiment d

Structure (SMILES): COc1ccc(C(CN(C)C)C2(O)CCCCC2)cc1 (stereo not drawn) [Venlafaxine, venlafaxine]
- reduction in body weight compared to vehicle treated rats ([1]; 30 mg/kg of venlafaxine alone): 0.7%
- Treatment: % Weight Gain ([1]; 30 mg/kg sc, experiment b): 7.4 ± 0.5%
- % Reduction ([1]; 30 mg/kg sc, experiment b): −0.7%
- Treatment Consumption ([2]; 4 h, 30 mg/kg ip, experiment b): 6.1 ± 0.84 g/4 Hrs
- % Reduction in Consumption ([2]; 4 h, 30 mg/kg ip, experiment b, 30 mg/kg): 13%
- % Reduction in Consumption ([2]; 4 h, 30 mg/kg ip, experiment b, listed as venlafaxine, 30 mg/kg): 13%
- Treatment Consumption ([2]; 24 h, 30 mg/kg ip, experiment b): 24.9 ± 1.52 g/24 Hrs
- % Reduction in Consumption ([2]; 24 h, 30 mg/kg ip, experiment b, 30 mg/kg): 0%
- % Reduction in Consumption ([2]; 24 h, 30 mg/kg ip, experiment b, listed as venlafaxine, 30 mg/kg): 0%

Structure (SMILES): CC(C)(N)Cc1ccccc1 [Phentermine, phentermine]
- Treatment: % Weight Gain ([1]; 4 mg/kg sc, experiment c): 4.2 ± 0.6%
- % Reduction ([1]; 4 mg/kg sc, experiment c): −1.1%

Structure (SMILES): CC(C)CC(N(C)C)C1(c2ccc(Cl)cc2)CCC1 (stereo not drawn) [Sibutramine, sibutramine]
- Treatment: % Weight Gain ([1]; 0.3 mg/kg po, experiment d): 4.7 ± 0.5%
- % Reduction ([1]; 0.3 mg/kg po, experiment d): −1.7%
- Treatment: % Weight Gain ([1]; 3 mg/kg po): −5.7 ± 1.2%
- % Reduction ([1]; 3 mg/kg po): −6.0%
- reduction of weight gain against vehicle treated controls (reduction from baseline) ([1]; given alone): 6%
- % Reduction in Consumption ([2]; 4 h, 1 mg/kg po, experiment c): 0%
- Treatment Consumption ([2]; 4 h, 1 mg/kg po, experiment c): 10.1 ± 1.24 g/4 Hrs
- % Reduction in Consumption ([2]; 4 h, 1 mg/kg po, experiment d): 28%
- Treatment Consumption ([2]; 4 h, 1 mg/kg po, experiment d): 4.9 ± 0.68 g/4 Hrs
- % Reduction in Consumption ([2]; 4 h, 3 mg/kg po, experiment c): 23%
- Treatment Consumption ([2]; 4 h, 3 mg/kg po, experiment c): 8.0 ± 1.29 g/4 Hrs
- % Reduction in Consumption ([2]; 4 h, 3 mg/kg po, experiment d): 54%
- Treatment Consumption ([2]; 4 h, 3 mg/kg po, experiment d): 3.2 ± 0.33 g/4 Hrs
- % Reduction in Consumption ([2]; 4 h, 10 mg/kg po, experiment d): 38%
- Treatment Consumption ([2]; 4 h, 10 mg/kg po, experiment d): 4.3 ± 0.61 g/4 Hrs
- reduction in effective dose of sibutramine ([2]; 4 hour consumption): 3 fold
- % Reduction in Consumption ([2]; 24 h, 1 mg/kg po, experiment c): 10%
- Treatment Consumption ([2]; 24 h, 1 mg/kg po, experiment c): 27.4 ± 1.78 g/24 Hrs
- % Reduction in Consumption ([2]; 24 h, 1 mg/kg po, experiment d): 16%
- Treatment Consumption ([2]; 24 h, 1 mg/kg po, experiment d): 20.7 ± 1.05 g/24 Hrs
- % Reduction in Consumption ([2]; 24 h, 3 mg/kg po, experiment c): 28%
- Treatment Consumption ([2]; 24 h, 3 mg/kg po, experiment c): 21.9 ± 1.98 g/24 Hrs
- % Reduction in Consumption ([2]; 24 h, 3 mg/kg po, experiment d): 38%
- Treatment Consumption ([2]; 24 h, 3 mg/kg po, experiment d): 15.4 ± 1.22 g/24 Hrs
- % Reduction in Consumption [2, 4]: 52%
- Treatment Consumption [2, 4]: 11.9 ± 1.15 g/24 Hrs
- reduction in effective dose of sibutramine ([2]; 24 hour consumption): 10 fold
- effect on consumption ([2]; given alone, oral administration required for a significant reduction): effective

Structure (SMILES): CN(C)CCCC1(c2ccc(F)cc2)OCc2cc(C#N)ccc21 (stereo not drawn) [Citalopram, citalopram]
- Treatment: % Weight Gain ([1]; 15 mg/kg sc, experiment a): 6.2 ± 1.0%
- % Reduction ([1]; 15 mg/kg sc, experiment a): −2.4%
- Treatment Consumption ([2]; 4 h, 25 mg/kg ip, experiment a): 5.3 ± 0.72 g/4 Hrs
- % Reduction in Consumption ([2]; 4 h, 25 mg/kg ip, experiment a, 25 mg/kg): 31%
- % Reduction in Consumption ([2]; 4 h, 25 mg/kg ip, experiment a, listed as citalopram, 25 mg/kg): 31%
- Treatment Consumption ([2]; 24 h, 25 mg/kg ip, experiment a): 23.0 ± 0.71 g/24 Hrs
- % Reduction in Consumption ([2]; 24 h, 25 mg/kg ip, experiment a, 25 mg/kg): 4%
- % Reduction in Consumption ([2]; 24 h, 25 mg/kg ip, experiment a, listed as citalopram, 25 mg/kg): 4%

Structure (SMILES): CN1CCN(CC(=O)N2c3ccccc3C(=O)Nc3cccnc32)CC1 [pirenzepine, 5,11-Dihydro-11-[(4-methyl-1-piperazinyl)acetyl]-6H-pyrido[2,3-b][1,4]benzodiazepin-6-one]
- dopamine efflux in the striatum [3]: decreased dopamine efflux

Structure (SMILES): CN[C@H]1CC[C@@H](c2ccc(Cl)c(Cl)c2)c2ccccc21 [Sertraline, sertraline]
- Treatment: % Weight Gain ([1]; 5 mg/kg sc): 7.2 ± 1.2%
- % Reduction ([1]; 5 mg/kg sc): −2.1%
- Treatment: % Weight Gain ([1]; 10 mg/kg sc): 6.0 ± 0.8%
- % Reduction ([1]; 10 mg/kg sc): −3.1%
- reduction in body weight compared to vehicle treated rats ([1]; 15 mg/kg of sertraline alone): 6.8%
- Treatment: % Weight Gain ([1]; 15 mg/kg sc, experiment b): 2.8 ± 0.8%
- % Reduction ([1]; 15 mg/kg sc, experiment b): −6.8%
- Treatment: % Weight Gain ([1]; 20 mg/kg sc): 2.8 ± 0.7%
- % Reduction ([1]; 20 mg/kg sc): −3.5%
- Treatment Consumption ([2]; 4 h, 10 mg/kg ip, experiment a): 6.0 ± 0.88 g/4 Hrs
- % Reduction in Consumption ([2]; 4 h, 10 mg/kg ip, experiment a, 10 mg/kg): 21%
- % Reduction in Consumption ([2]; 4 h, 10 mg/kg ip, experiment a, listed as sertraline, 10 mg/kg): 21%
- Treatment Consumption ([2]; 4 h, 30 mg/kg ip, experiment a): 5.6 ± 0.73 g/4 Hrs
- % Reduction in Consumption ([2]; 4 h, 30 mg/kg ip, experiment a, 30 mg/kg): 27%
- % Reduction in Consumption ([2]; 4 h, 30 mg/kg ip, experiment a, listed as sertraline, 30 mg/kg): 27%
- Treatment Consumption ([2]; 24 h, 10 mg/kg ip, experiment a): 23.5 ± 0.71 g/24 Hrs
- % Reduction in Consumption ([2]; 24 h, 10 mg/kg ip, experiment a, 10 mg/kg): 2%
- % Reduction in Consumption ([2]; 24 h, 10 mg/kg ip, experiment a, listed as sertraline, 10 mg/kg): 2%
- Treatment Consumption ([2]; 24 h, 30 mg/kg ip, experiment a): 17.1 ± 1.60 g/24 Hrs
- % Reduction in Consumption ([2]; 24 h, 30 mg/kg ip, experiment a, 30 mg/kg): 28%
- % Reduction in Consumption ([2]; 24 h, 30 mg/kg ip, experiment a, listed as sertraline, 30 mg/kg): 28%
